One may read the Ki as the dissociation constant of the complex between target and ligand, obtained from inhibition or displacement.

Structures are written as SMILES. Counter-ions that a name gives are not always drawn. Like-named read-outs stand apart in the source and are kept apart here.

These results are taken from patent US6841701B2, “Inhibitors for the blood-clotting factor Xa” (Curacyte AG, priority 2000, dated 2005).

One experiment addresses F Xa (Homo sapiens, UniProt P00742). The following applies: cited from earlier work.
Experiment [1] has as its system human citrate plasma. The experiment in a line: Inhibition of the coagulation of human plasma: prothrombin time (PT). It counts as biochemical. How it is done: (§1) Determination of the Inhibition of Coagulation
(§2) For the determination of the prothrombin time (PT), 100 μl of thromboplastin (Dade, Unterschleiβheim) and 100 μl of inhibitor, dissolved in CaCl2 (0.05 M, 5% ethanol) were incubated at 37° C. for 2 min and the coagulation was started by addition of 100 μl of human citrate plasma. For the determination of the activated partial thromboplastin time (aPTT), 100 μl of human citrate plasma were incubated with 100 μl of aPTT reagent (Roche Diagnostics, Mannheim) at 37° C. for 3 min and the coagulation was started by addition of 100 μl of inhibitor, dissolved in CaCl2 (0.05 M, 5% ethanol). The coagulation times were determined using the Thrombotrack coagulometer (Immuno, Heidelberg).

Experiment [2] has as its system human citrate plasma. The experiment in a line: Inhibition of the coagulation of human plasma: activated partial thromboplastin time (aPTT). The experiment is classed as biochemical. The protocol:
as §1, §2

Chain of F Xa (P00742 235-488 limits assumed): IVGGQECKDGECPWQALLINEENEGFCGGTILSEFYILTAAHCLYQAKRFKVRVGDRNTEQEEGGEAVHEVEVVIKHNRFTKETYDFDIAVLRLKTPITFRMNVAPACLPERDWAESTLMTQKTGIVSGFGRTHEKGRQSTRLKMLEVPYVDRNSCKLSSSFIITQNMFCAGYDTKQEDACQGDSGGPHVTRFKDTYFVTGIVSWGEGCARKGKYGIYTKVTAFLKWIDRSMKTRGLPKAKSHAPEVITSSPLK
Chain of F Xa (P00742 41-179 partner limits assumed): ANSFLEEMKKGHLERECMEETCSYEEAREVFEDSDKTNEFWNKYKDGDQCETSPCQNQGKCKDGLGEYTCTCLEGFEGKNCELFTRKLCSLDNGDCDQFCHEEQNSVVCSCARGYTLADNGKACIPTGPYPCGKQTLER

In the case of `N=C(N)c1ccc(C=C2CCCCC(=Cc3ccc(C(=N)N)cc3)C2=O)cc1` [BABCH], at F Xa (literature), the Ki is 13 nM.
As for `N=C(N)c1ccc(CNC(=O)CNC(=O)[C@@H](COCc2ccccc2)NS(=O)(=O)Cc2ccccc2)cc1` [Benzylsulfonyl-D-Ser(Bz)-Gly-4-amidinobenzylamide×TFA], the “Prolongation of the coagulation time (%) PT” value with human citrate plasma [1] (Concentration 0.1 μM) worked out at 119%; in the experiment on human citrate plasma [1] (Concentration 0.21 μM), 127%; in the experiment with human citrate plasma [1] (Concentration 0.42 μM), 153%; in the experiment with human citrate plasma [1] (Concentration 0.83 μM) it was 198%; in the experiment on human citrate plasma [1] (Concentration 1.7 μM) it was 266%; with human citrate plasma [1] (Concentration 3.3 μM) it was 386%. Further, the “Prolongation of the coagulation time (%) aPTT” value with human citrate plasma [2] (Concentration 0.1 μM) is recorded as 111%; with human citrate plasma [2] (Concentration 0.21 μM), 122%; with human citrate plasma [2] (Concentration 0.42 μM), 146%; in the experiment with human citrate plasma [2] (Concentration 0.83 μM), 185%; in the experiment with human citrate plasma [2] (Concentration 1.7 μM), 260%; in the experiment with human citrate plasma [2] (Concentration 3.3 μM), 385%.
In the case of `N=C(N)c1ccc(CNC(=O)[C@@H]2CCN2C(=O)[C@H](NCC(=O)O)C2CCCCC2)cc1` [melagatran], at F Xa (literature (Gustafsson et al. 1996)), the Ki was 2800 nM.
